Results: patent publication US6248750A, “9-hydroxyamino tetrahydroacridine and related compounds” (Hoechst Roussel Pharmaceuticals, priority 2000, dated 2001)
Where a name gives a salt, the structure may show the parent alone. Read-outs that look alike come from different tables or passages of the source.

What was measured:
[1] = tested on: mice; experiment: Dark Avoidance Assay (reversal of scopolamine induced memory deficit); format: in vivo; conditions: retest after 24 hours
Procedure: In this assay mice are tested for their ability to remember an unpleasant stimulus for a period of 24 hours. A mouse is placed in a chamber that contains a dark compartment; a srong incandescent light drives it to the dark compartment, where an electric shock is administered through metal plates on the floor. The animal is removed from the testing apparatus and tested again, 24 hours later, for the ability to remember the electric shock.
If scopolamine, an anticholinergic that is known to cause memory impairment, is administered before an animal's initial exposure to the test chamber, the animal re-enters the dark compartment shortly after being placed in the test chamber 24 hours later.

[2] = molecular target: acetylcholinesterase (Homo sapiens, UniProt P22303); experiment: biochemical
acetylcholinesterase, sequence (P22303 32-614): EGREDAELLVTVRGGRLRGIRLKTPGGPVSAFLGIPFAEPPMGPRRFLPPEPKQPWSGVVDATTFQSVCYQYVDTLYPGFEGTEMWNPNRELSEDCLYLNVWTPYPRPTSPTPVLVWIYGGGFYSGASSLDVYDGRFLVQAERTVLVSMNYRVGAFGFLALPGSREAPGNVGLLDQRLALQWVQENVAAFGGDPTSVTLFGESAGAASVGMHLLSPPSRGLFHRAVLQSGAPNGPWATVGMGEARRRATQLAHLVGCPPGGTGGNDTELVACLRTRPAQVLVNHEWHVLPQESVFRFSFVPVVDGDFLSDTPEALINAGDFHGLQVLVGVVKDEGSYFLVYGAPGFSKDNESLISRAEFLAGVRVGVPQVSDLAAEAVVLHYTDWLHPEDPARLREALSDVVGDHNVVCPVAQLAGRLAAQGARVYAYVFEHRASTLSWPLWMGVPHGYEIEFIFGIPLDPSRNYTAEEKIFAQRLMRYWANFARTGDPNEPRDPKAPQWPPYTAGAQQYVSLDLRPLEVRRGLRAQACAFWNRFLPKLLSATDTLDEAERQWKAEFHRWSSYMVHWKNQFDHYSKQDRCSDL

Row | SMILES | IC50 [2] [µM] | % Animals with Scopolamine Induced memory deficit reversed ([1]; dose 1.0 mg/kg s.c.) [%] | other results
1 | Nc1c2c(nc3ccccc13)CCCC2 [9-Amino-1,2,3,4-tetrahydroacridine, reference compound] | – | – | % Animals with Scopolamine Induced memory deficit reversed ([1]; dose 0.31 mg/kg s.c.): 20%
2 | Fc1ccccc1CONc1c2c(nc3ccccc13)CCCC2 [N-(2-Fluorobenzyloxy)-1,2,3,4-tetrahydro-9-acridinamine] | 5.2 | – | –
3 | c1ccc(CONc2c3c(nc4ccccc24)CCCC3)cc1 [N-Benzyloxy-1,2,3,4-tetrahydro-9-acridinamine] | 6.1 | – | –
4 | CONc1c2c(nc3ccccc13)CCCC2.Cl [N-Methoxy-1,2,3,4-tetrahydro-9-acridinamine hydrochloride] | 0.51 | 27 | –
5 | CON(C)c1c2c(nc3ccccc13)CCCC2 [N-Methoxy-N-methyl-1,2,3,4-tetrahydro-9-acridinamnine hydrochloride] | – | 27 | IC50 ([2]; read-out: Cholinesterase Inhibition IC50): 27 µM
6 | CCCONc1c2c(nc3ccccc13)CCCC2 [N-Propyloxy-1,2,3,4-tetrahydro-9-acridinamine, oxalate, hemihydrate] | – | – | IC50 ([2]; read-out: Cholinesterase Inhibition IC50, photometric method of Ellman et al.): 0.83 µM
